These are literature values, as cited in patent US20250009771A1, “PHARMACEUTICAL COMPOSITION FOR TREATING COLORECTAL CANCER, INCLUDING TUMOR-TARGETED LIPOSOMES CONTAINING PLATYCODIN D2” (INDUSTRY-UNIVERSITY COOPERATION FOUNDATION HANYANG …, priority 2023, published 2025).

One data set addresses T1, BCL-XL (Homo sapiens, UniProt Q07817).
T1 construct: host or cells: adenomas and tumor organoids (endogenous protein)
Conditions: cited from earlier work.

For data set [1] the following is noted: slightly acidic pH; cited from earlier work.

T1 sequence (Q07817 whole entry, species assumed): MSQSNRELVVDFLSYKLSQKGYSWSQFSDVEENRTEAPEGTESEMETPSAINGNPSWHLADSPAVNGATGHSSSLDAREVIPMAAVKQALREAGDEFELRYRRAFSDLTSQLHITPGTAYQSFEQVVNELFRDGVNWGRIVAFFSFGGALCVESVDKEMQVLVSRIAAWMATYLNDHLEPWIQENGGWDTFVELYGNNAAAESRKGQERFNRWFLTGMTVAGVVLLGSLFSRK

`CN(C)CC#Cc1ccc(OCCCc2sc(N3CCc4cccc(C(=O)Nc5nc6ccccc6s5)c4C3)nc2C(=O)O)c(F)c1` [A-1155463]: the “clonogenic potential of adenomas and tumor organoids” value on BCL-XL was “significantly impaired”.

In the case of “GLAGLAGLLGLEGLLGLPLGLLEGLWLGLELEGN [ATRAM, pH-responsive acidity-triggered rational membrane peptide]”, in data set [1], the “pK of insertion into the cell membrane” value is 6.5.
